Source: PubChem BioAssay (NCI)
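Following 48 hours of exposure in 96-well plates, responses at five concentrations were used to interpolate endpoints linearly. TGI: total growth inhibition.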

Key:
Assay in all cases: NCI-60 cell line screen, 48 h
ACHN renal = tested on: ACHN renal
BT-549 breast = tested on: BT-549 breast
COLO 205 colon = tested on: COLO 205 colon
EKVX NSCLC = tested on: EKVX NSCLC
HL-60(TB) leukemia = tested on: HL-60(TB) leukemia
HT29 colon = tested on: HT29 colon
M14 melanoma = tested on: M14 melanoma
NCI-H23 lung = tested on: NCI-H23 lung
SK-MEL-2 melanoma = tested on: SK-MEL-2 melanoma
SK-MEL-5 melanoma = tested on: SK-MEL-5 melanoma
TK-10 renal = tested on: TK-10 renal
UACC-62 melanoma = tested on: UACC-62 melanoma

Row | Compound | TGI (ACHN renal) | TGI (BT-549 breast) | TGI (COLO 205 colon) | TGI (EKVX NSCLC) | TGI (HL-60(TB) leukemia) | TGI (HT29 colon) | TGI (M14 melanoma) | TGI (NCI-H23 lung) | TGI (SK-MEL-2 melanoma) | TGI (SK-MEL-5 melanoma) | TGI (TK-10 renal) | TGI (UACC-62 melanoma)
1 | CCOC(=O)C1=C(C)N(C)C(=S)NC1c1cccc(O)c1 (configuration not stated) | > 100 µM | 87.9 µM | > 100 µM | 93.6 µM | 64 µM | > 100 µM | 83.1 µM | > 100 µM | 97.2 µM | > 100 µM | > 100 µM | > 100 µM
2 | Cn1cnc2c(OCC3CCCCC3)nc(N)nc21 | > 100 µM | > 100 µM | > 100 µM | > 100 µM | > 100 µM | > 100 µM | > 100 µM | > 100 µM | > 100 µM | > 100 µM | > 100 µM | > 100 µM
3 | O=C1SC(c2ccc(Cl)cc2)(c2ccc(Cl)cc2)c2ccccc21 | > 100 µM | > 100 µM | > 100 µM | > 100 µM | 96.6 µM | > 100 µM | > 100 µM | > 100 µM | 77.5 µM | > 100 µM | > 100 µM | > 100 µM
4 | CCCCCC(=O)OCC(=O)[C@H]1[C@H](C)C[C@H]2[C@@H]3C[C@H](F)C4=C/C(=N/OC(=O)c5cccc6c(=O)c7ccccc7[nH]c56)C=C[C@]4(C)[C@H]3[C@@H](O)C[C@@]21C | > 100 µM | 66.5 µM | 72.8 µM | > 100 µM | > 100 µM | 57.8 µM | 77.9 µM | > 100 µM | 76.8 µM | 27.8 µM | > 100 µM | 32 µM
5 | C/C(=N\NS(=O)(=O)c1ccc(C)cc1)C(CN(C)C)C(c1ccccc1)c1c(O)c2ccccc2oc1=O (configuration not stated) | > 100 µM | > 100 µM | > 100 µM | > 100 µM | > 100 µM | > 100 µM | > 100 µM | > 100 µM | > 100 µM | > 100 µM | > 100 µM | > 100 µM
6 | CC(=N/NC(=S)Nc1c(C)n(C)n(-c2ccccc2)c1=O)/C(C)=N\NC(=S)Nc1c(C)n(C)n(-c2ccccc2)c1=O | > 100 µM | > 100 µM | > 100 µM | > 100 µM | > 100 µM | > 100 µM | > 100 µM | > 100 µM | > 100 µM | > 100 µM | > 100 µM | > 100 µM
7 | COc1ccc(C2SC(N)=Nc3c2c(C)nn3C(=O)c2ccc(Cl)cc2)cc1 (configuration not stated) | > 10 µM | > 10 µM | > 10 µM | > 10 µM | > 10 µM | > 10 µM | > 10 µM | > 10 µM | > 10 µM | > 10 µM | > 10 µM | > 10 µM
8 | CCC(CC)C(=O)OC[n+]1cccc(-c2c(COC(=O)NC(C)C)c(COC(=O)NC(C)C)c3n2CCC3)c1 | > 100 µM | > 100 µM | > 100 µM | > 100 µM | > 100 µM | > 100 µM | > 100 µM | > 100 µM | > 100 µM | > 100 µM | > 100 µM | > 100 µM
9 | CN1CC2=C(NC(=S)NC2c2ccc(Cl)cc2)/C(=C/c2ccc(Cl)cc2)C1 (configuration not stated) | 57.9 µM | 48.6 µM | 33.3 µM | 68.8 µM | 48 µM | 34 µM | 33.6 µM | 43.8 µM | 30.2 µM | 26.8 µM | > 100 µM | 33.8 µM
10 | Cc1cc(NC(=O)C(=O)Cc2cnc3ccccc3n2)c(S(=O)(=O)O)cc1Cl | > 100 µM | > 100 µM | > 100 µM | > 100 µM | > 100 µM | > 100 µM | > 100 µM | > 100 µM | > 100 µM | > 100 µM | > 100 µM | > 100 µM
11 | Cc1cn(CC2=NCC(C)(C)CN2)c(=O)[nH]c1=O | > 100 µM | > 100 µM | > 100 µM | > 100 µM | > 100 µM | > 100 µM | > 100 µM | > 100 µM | > 100 µM | > 100 µM | > 100 µM | > 100 µM
